This test deals with LacZ B3Z hybridoma. The test is described as follows: LacZ MHC Class I antigen presentation assay. The test is classed as cell-based. The method, then: In one embodiment, particles prepared from these acid degradable epolymer backbones are designed to release their bioactive material payload into the cytoplasm of cells upon lysosomal destabilization. Higher loading capacity of the particles may also lead to greater antigen presentation of the encapsulated bioactive material. In the antigen presentation assay described by Sanderson, S.; Shastri, N. in Inter. Immun. 1994, 6, 369-376, the β-galactosidase activity of B3Z T cells is measured. Antigen presenting cells display the peptide having the sequence, […] (SEQ ID NO: 8), upon phagocytosis of ovalbumin. These cells are engineered to transcribe β-galactosidase when in the presence of antigen presenting cells displaying the […] peptide (SEQ ID NO: 8). β-galactosidase then liberates chlorophenol red from the chlorophenol red βgalactoside that is present in solution. Absorbance of chlorophenol red is measured by UV absorbance at 595 nm. Therefore this assay can be used as a measurement of the amount of bioactive material delivered into the cytoplasm of cells by the microgel particles of the invention by measuring the amount of liberated chlorophenol red by UV absorbance at 595 nm.
The LacZ MHC Class I antigen presentation assay, as described by the antigen Sanderson, S.; Shastri, N. in Inter. Immun. 1994, 6, 369-376, is performed with degradable polymer particles made according to Example 7 with the degradable polymers in Example 1 and 3 to test their ability to deliver proteins into APCs for Class I antigen presentation. This experiment uses the LacZ B3Z hybridoma, which is a CTL that recognizes the peptide sequence, […] (SEQ ID NO: 8), from ovalbumin, complexed with the MHC Class I molecule H-2 K^b. This hybridoma produces P-galactosidase after encountering APCs that present […] as a Class I antigen, thus allowing Class I antigen presentation to be quantified by measuring β-galactosidase activity.
A maximum absorbance of 0.25 is observed with the […] peptide (SEQ ID NO: 8), which results in 100% T-cell activation. At about 0.4 mg of particle/mL, degradable particles made as in Examples 1, should show an absorbance close to that of 0.25 at which 100% T-cell activation occurs.

Take “free ovalbumin: free ovalbumin protein, comparator”: under “1 mg/ml of free ovalbumin”, the “U.V. absorbance resulting from activation” value is 0.037. Besides, the “activation of CTLs by APCs” value (APCs incubated with the substance) is listed as “not able to activate CTLs”.
Regarding SIINFEKL, the T-cell activation (at maximum absorbance) was found to be 100%. For the setting “chlorophenol red, 595 nm”, the maximum absorbance is given as 0.25.

The values above are taken from US8137700B2, “Main chain acid-degradable polymers for the delivery of bioactive materials” (U.S. Department of Energy, priority 2006, dated 2012).
